The source of these data is US20230012368A1 (Hoffmann-La Roche Inc., priority 2018, published 2023).

As usually defined, the IC90 is the concentration needed for an effect of 90%.

Structures can show the parent of a compound that is named as a salt.

The first assay deals with Acinetobacter baumannii ATCC 17978. Briefly: Antimicrobial susceptibility testing: 90% growth inhibitory concentration (IC90) determination. The assay is classed as cell-based. To be noted: 90% growth inhibitory concentration; Acinetobacter baumannii ATCC17978; Iso-Sensitest broth, OD 600 nm over 16h; read-out: ATCC17978 IC90. The method, then: Antimicrobial Susceptibility Testing:
90% Growth Inhibitory Concentration (IC90) Determination
The in vitro antimicrobial activity of the compounds was determined according to the following procedure:
The assay used a 10-points Iso-Sensitest broth medium to measure quantitatively the in vitro activity of the compounds against Acinetobacter baumannii ATCC 17978 and Acinetobacter baumannii ATCC 17961.
Stock compounds in DMSO were serially twofold diluted (e.g. range from 50 to 0.097 μM final concentration) in 384 wells microtiter plates and inoculated with 49 μl the bacterial suspension in Iso-Sensitest medium to have a final cell concentration of ˜5×10^(5) CFU/ml in a final volume/well of 50 ul/well. Microtiter plates were incubated at 35±2° C.
Bacterial cell growth was determined with the measurement of optical density at λ=600 nm each 20 minutes over a time course of 16h. Growth inhibition was calculated during the logarithmic growth of the bacterial cells with determination of the concentration inhibiting 50% (IC50) and 90% (IC90) of the growth.
Table 1 provides the 90% growth inhibitory concentrations (IC90) in micromoles per liter of the compounds of present invention obtained against the strain Acinetobacter baumannii ATCC17978 and Acinetobacter baumannii ATCC17961.
For the compound `CNCC1CN(CCN(C)C(=O)c2ccc(Nc3nccn4c(-c5ccc(OC)c(F)c5)cnc34)cc2C)CCO1` (centres unmarked) [Example 109, 4-[[3-(3-fluoro-4-methoxy-phenyl)imidazo[1,2-a]pyrazin-8-yl]amino]-N,2-dimethyl-N-[2-[2-(methylaminomethyl)morpholin-4-yl]ethyl]benzamide hydrochloride], the IC90 was found to be 960 nM.

As for `CCc1cc(Nc2nccn3c(-c4ccc(OC)c(F)c4F)cnc23)ccc1C(=O)N[C@@H](CN)C(=O)OC` [Example 308, methyl (2S)-3-amino-2-[[4-[[3-(2,3-difluoro-4-methoxyphenyl)imidazo[1,2-a]pyrazin-8-yl]amino]-2-ethylbenzoyl]amino]propanoate; hydrochloride], the IC90 was found to be 660 nM.

Take `CCc1cc(Nc2nccn3c(-c4ccc(OC)c(F)c4F)cnc23)ccc1C(=O)NC(CCN)C(F)(F)F` (centres unmarked) [Example 320, N-(4-amino-1,1,1-trifluorobutan-2-yl)-4-[[3-(2,3-difluoro-4-methoxyphenyl)imidazo[1,2-a]pyrazin-8-yl]amino]-2-ethylbenzamide; hydrochloride]: the IC90 came out at 2700 nM.

`CCc1cc(Nc2nccn3c(-c4ccc(Oc5ccc(C(=O)NCCN)cn5)c(F)c4F)cnc23)ccc1C(=O)NC` [Example 490, N-(2-aminoethyl)-6-[4-[8-[3-ethyl-4-(methylcarbamoyl)anilino]imidazo[1,2-a]pyrazin-3-yl]-2,3-difluoro-phenoxy]pyridine-3-carboxamide; formic acid]: the concentration for an effect of 90% (IC90) was 450 nM.

Still in this assay, the particulars now being: Acinetobacter baumannii, ATCC17978, 16 h, 90% growth inhibitory concentration; Acinetobacter baumannii ATCC17978; Iso-Sensitest broth, OD 600 nm over 16h; read-out: ATCC17978 IC90.
With `CCc1cc(Nc2nccn3c(-c4ccc(OC)c(F)c4F)cnc23)ccc1C(=O)NC[C@@H]1CNC[C@@H]1O` [Example 531, 4-((3-(2,3-difluoro-4-methoxyphenyl)imidazo[1,2-a]pyrazin-8-yl)amino)-2-ethyl-N-(((3S,4R)-4-hydroxypyrrolidin-3-yl)methyl)benzamide hydrochloride], the IC90 is 150 nM.

For `CCc1cc(Nc2nccn3c(-c4ccc(OC)c(F)c4F)cnc23)ccc1C(=O)NCCN1CCN(CCCC(=O)O)CC1` [Example 444, 4-(4-(2-(4-((3-(2,3-difluoro-4-methoxyphenyl)imidazo[1,2-a]pyrazin-8-yl)amino)-2-ethylbenzamido)ethyl)pipera-zin-1-yl)butanoic acid], the IC90 was 320 nM.

Regarding `COc1ccc(-c2cnc3c(Nc4cc(F)c(C(=O)NCCCN)c(F)c4)nccn23)c(F)c1F` [Example 435, N-(3-aminopropyl)-4-((3-(2,3-difluoro-4-methoxyphenyl)imidazo[1,2-a]pyrazin-8-yl)amino)-2,6-difluorobenzamide], the IC90 was 730 nM.

In the case of `CN(CCC1CCNCC1)C(=O)c1ccc(Nc2nccn3c(-c4ccc(OCC#N)c(F)c4F)cnc23)cc1Cl` [Example 78, 2-chloro-4-[[3-[4-(cyanomethoxy)-2,3-difluoro-phenyl]imidazo[1,2-a]pyrazin-8-yl]amino]-N-methyl-N-[2-(4-piperidyl)ethyl] benzamide; 2,2,2-trifluoroacetic acid], the IC90 amounted to 130 nM.

In the case of `COc1ccc(-c2cnc3c(Nc4ccc(C(=O)NCC5CCNCC5)c(C)c4)nccn23)cc1` [Example 211, 4-[[3-(4-methoxyphenyl)imidazo[1,2-a]pyrazin-8-yl]amino]-2-methyl-N-(piperidin-4-ylmethyl)benzamide;hydrochlo-ride], the IC90 was found to be 640 nM.

Take `CCc1cc(Nc2nccn3c(-c4ccc(Cl)cc4Cl)cnc23)ccc1C(=O)NCCNC(=O)[C@@H](N)CCCNC(=N)N` [Example 346, N-[2-[[(2S)-2-amino-5-carbamimidamidopentanoyl]amino]ethyl]-4-[[3-(2,4-dichlorophenyl)imidazo[1,2-a]pyrazin-8-yl]amino]-2-ethylbenzamide;hydrochloride]: the IC90 is 980 nM.

`COc1ccc(-c2cnc3c(Nc4ccc5c(c4)CCN(C)C5=O)nccn23)cc1F` [Example 274, 6-[[3-(3-fluoro-4-methoxyphenyl)imidazo[1,2-a]pyrazin-8-yl]amino]-2-methyl-3,4-dihydroisoquinolin-1-one]: the 90% effect concentration (IC90) is 240 nM.

As to `CCc1cc(Nc2nccn3c(-c4ccc(OC)c(F)c4F)cnc23)ccc1C(=O)NCCCNC(=O)NCCCN` [Example 120], the IC90 stood at 140 nM.

Consider `CCc1cc(Nc2nccn3c(-c4ccc(OC)c(F)c4F)cnc23)ccc1C(=O)NCC(O)CO` (centres unmarked) [Example 483, 4-((3-(2,3-difluoro-4-methoxyphenyl)imidazo[1,2-a]pyrazin-8-yl)amino)-N-(2,3-dihydroxypropyl)-2-ethylbenzamide], for which the IC90 came to 210 nM.

As for `Cc1cc(Nc2nccn3c(-c4ccc(OCC#CCN)c(F)c4)cnc23)ccc1C(=O)N(C)C` [Example 313, 4-[[3-[4-(4-aminobut-2-ynoxy)-3-fluorophenyl]imidazo[1,2-a]pyrazin-8-yl]amino]-N,N,2-trimethylbenzamide], the IC90 came to 1200 nM.

For `COc1ccc(-c2cnc3c(Nc4ccc(C(=O)NCCCCCNC(=O)OC(C)(C)C)c(C)c4)nccn23)cc1` [Example 223, tert-butyl N-[5-[[4-[[3-(4-methoxyphenyl)imidazo[1,2-a]pyrazin-8-yl]amino]-2-methylbenzoyl]amino]pentyl] carbamate], the IC90 came out at 1100 nM.

On to `COc1ccc(-c2cnc3c(Nc4ccc(C(=O)N[C@@H](C)CNC(=N)C(C)C)c(C)c4)nccn23)c(F)c1F` [Example 499, 4-[[3-(2,3-difluoro-4-methoxyphenyl)imidazo[1,2-a]pyrazin-8-yl]amino]-2-methyl-#N!-[(2#S!)-1-(2-methylpropanimidoylamino)propan-2-yl]benzamide], for which the 90% effect concentration (IC90) was 300 nM.

For `CCc1cc(Nc2nccn3c(-c4ccc(OC)c(F)c4F)cnc23)ccc1C(=O)NCCCNC(=O)[C@@H](N)CNC(=N)N` [Example 359, N-[3-[[(2S)-2-amino-3-carbamimidamidopropanoyl]amino]propyl]-4-[[3-(2,3-difluoro-4-methoxyphenyl)imidazo[1,2-a]pyrazin-8-yl]amino]-2-ethylbenzamide], the IC90 worked out at 60 nM.

In the case of `Cc1cc(Nc2nccn3c(-c4ccc(OC(F)F)cc4)cnc23)ccc1C(=O)NCCCN1CCOCC1` [Example 209, 4-[[3-[4-(difluoromethoxy)phenyl]im-idazo[1,2-a]pyrazin-8-yl]amino]-2-methyl-N-(3-morpholin-4-ylpropyl)benzamide], the IC90 was determined as 590 nM.

For the compound `Cc1cc(Nc2nccn3c(-c4ccc(OC(F)F)cc4)cnc23)ccc1C(=O)NCCN` [Example 266, N-(2-aminoethyl)-4-[[3-[4-(difluoromethoxy)phenyl]im-idazo[1,2-a]pyrazin-8-yl]amino]-2-methylbenzamide;hydrochlo-ride], the IC90 stood at 5100 nM.

`CCc1cc(Nc2nccn3c(-c4ccc(OC(F)F)c(F)c4F)cnc23)ccc1C(=O)NCCCN` [Example 276, N-(3-aminopropyl)-4-[[3-[4-(difluoromethoxy)-2,3-difluorophenyl]imidazo[1,2-a]pyrazin-8-yl]amino]-2-ethylbenzamide;hydrochloride]: the IC90 came out at 480 nM.

`O=C(NCc1ccccn1)c1ccc(Nc2nccn3c(-c4ccc(OC(F)F)cc4)cnc23)cc1Cl` [Example 111, 2-chloro-4-((3-(4-(difluoromethoxy)phenyl)imidazo[1,2-a]pyrazin-8-yl)amino)-N-(pyridin-2-ylmethyl)benzamide]: the concentration for an effect of 90% (IC90) came out at 2100 nM.

For `COC(=O)[C@@H](N)CCCCNC(=O)c1ccc(Nc2nccn3c(-c4ccc(OC(F)F)cc4)cnc23)cc1C` [Example 226, methyl (2S)-2-amino-6-[[4-[[3-[4-(difluoromethoxy)phenyl]im-idazo[1,2-a]pyrazin-8-yl]amino]-2-methylbenzoyl]amino]hexa-noate;hydrochloride], the IC90 amounted to 1100 nM.

As for `CCc1cc(Nc2nccn3c(-c4ccc(OC)c(F)c4F)cnc23)ccc1C(=O)N[C@@H](C)C(=O)NCCNC` [Example 567, 4-[[3-(2,3-difluoro-4-methoxy-phenyl)imidazo[1,2-a]pyrazin-8-yl]amino]-2-ethyl-N-[(1S)-1-methyl-2-[2-(methylamino)ethylamino]-2-oxo-ethyl]benzamide], the IC90 amounted to 650 nM.

As to `CCc1cc(Nc2nccn3c(-c4ccc(OC)c(F)c4F)cnc23)ccc1C(=O)N[C@H](C)CNC(=O)[C@@H](N)CCCNC(=N)N` [Example 331, N-[(2R)-1-[[(2S)-2-amino-5-carbamimidamidopentanoyl]amino]propan-2-yl]-4-[[3-(2,3-difluoro-4-methoxyphenyl)imidazo[1,2-a]pyrazin-8-yl]amino]-2-ethylbenzamide;formic acid], the IC90 was found to be 300 nM.

Regarding `CCc1cc(Nc2nccn3c(-c4ccc(OC(F)F)cc4)cnc23)ccc1C(=O)N(C)CCN1CCNCC1` [Example 224, 4-[[3-[4-(difluoromethoxy)phenyl]im-idazo[1,2-a]pyrazin-8-yl]amino]-2-ethyl-N-methyl-N-(2-piperazin-1-ylethyl)benzamide;hydrochlo-ride], the IC90 worked out at 1100 nM.

Take `CCc1cc(Nc2nccn3c(-c4ccc(OC)c(F)c4F)cnc23)ccc1C(=O)NCCC(=O)N1CCN[C@H](CO)C1` [Example 160, 4-[[3-(2,3-difluoro-4-methoxy-phenyl)imidazo[1,2-a]pyrazin-8-yl]amino]-2-ethyl-N-[3-[(3S)-3-(hydroxymethyl)piperazin-1-yl]-3-oxo-propyl]benzamide]: the IC90 was determined as 150 nM.
